Bounds are passed on as bounds.

Assay [1] deals with Neuronal acetylcholine receptor subunit alpha-7 (Mus musculus, UniProt P49582). Briefly: In vitro Binding affinity towards alpha-7 nAChR was determined.
Assay [2] has as its target Neuronal acetylcholine receptor; alpha4/beta2 (Homo sapiens, UniProt P17787+P43681). Briefly: In vitro Binding affinity towards Nicotinic acetylcholine receptor alpha4-beta2 was determined. In kind it is protein-complex assay.
In assay [3] the target is Serotonin 3 (5-HT3) receptor. Briefly: In vitro Binding affinity towards 5-hydroxytryptamine 3 receptor was determined. Format: protein-complex assay.
Assay [4] deals with Neuronal acetylcholine receptor subunit alpha-7 (Mus musculus) (UniProt P49582). As to the kind of experiment: Functional activity is expressed as percent efficacy for alpha-7 nAChR.
Chain of Neuronal acetylcholine receptor subunit alpha-7 (Mus musculus) (P49582 whole entry): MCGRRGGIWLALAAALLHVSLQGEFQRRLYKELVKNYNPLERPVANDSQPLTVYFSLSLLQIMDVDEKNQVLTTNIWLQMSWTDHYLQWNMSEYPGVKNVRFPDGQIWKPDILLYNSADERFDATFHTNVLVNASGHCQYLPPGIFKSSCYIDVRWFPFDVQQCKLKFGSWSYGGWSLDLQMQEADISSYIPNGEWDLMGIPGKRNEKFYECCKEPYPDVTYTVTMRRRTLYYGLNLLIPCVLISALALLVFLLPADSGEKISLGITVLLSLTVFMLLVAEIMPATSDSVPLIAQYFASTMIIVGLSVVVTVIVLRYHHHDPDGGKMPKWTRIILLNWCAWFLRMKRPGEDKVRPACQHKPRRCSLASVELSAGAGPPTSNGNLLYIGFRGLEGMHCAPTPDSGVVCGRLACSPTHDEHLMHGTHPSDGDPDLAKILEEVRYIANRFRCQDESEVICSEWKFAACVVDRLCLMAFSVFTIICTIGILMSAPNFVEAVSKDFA
In assay [5] the target is Neuronal acetylcholine receptor subunit alpha-7 (Homo sapiens, UniProt P36544). Briefly: Effective concentration that causes inhibition of alpha-7 nAChR, was determined. Values are expressed as EC50 +/- SEM. In kind it is functional.
Chain of Neuronal acetylcholine receptor subunit alpha-7 (Homo sapiens, UniProt P36544) (P36544 whole entry): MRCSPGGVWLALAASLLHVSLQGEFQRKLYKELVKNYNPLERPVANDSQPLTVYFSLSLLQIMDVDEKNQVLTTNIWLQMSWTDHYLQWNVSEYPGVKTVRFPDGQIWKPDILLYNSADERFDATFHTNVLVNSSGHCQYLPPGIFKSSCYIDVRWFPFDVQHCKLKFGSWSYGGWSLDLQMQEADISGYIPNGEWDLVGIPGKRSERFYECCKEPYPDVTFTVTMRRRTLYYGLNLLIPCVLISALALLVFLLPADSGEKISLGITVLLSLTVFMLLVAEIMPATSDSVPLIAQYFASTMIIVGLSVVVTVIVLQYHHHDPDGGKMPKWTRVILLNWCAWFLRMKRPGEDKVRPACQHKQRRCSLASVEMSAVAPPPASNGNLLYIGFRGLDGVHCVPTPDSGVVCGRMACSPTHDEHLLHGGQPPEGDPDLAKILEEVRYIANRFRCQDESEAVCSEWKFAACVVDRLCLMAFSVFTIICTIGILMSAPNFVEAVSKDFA
Assay [6] addresses T1, Acetylcholine receptor; alpha1/beta1/delta/gamma (Homo sapiens, UniProt P02708+P07510+P11230+Q07001). As to the kind of experiment: In vitro Binding affinity towards alpha-1-beta-1-gamma-delta nAChR was determined. In kind it is protein-complex assay.
Assay [7] has as its target T1, Acetylcholine receptor; alpha1/beta1/delta/gamma. Briefly: In vitro Binding affinity towards alpha-1-beta-1-gamma delta nAChR was determined.

Chain of Neuronal acetylcholine receptor subunit alpha-7 (Mus musculus, UniProt P49582) (P49582 whole entry): as the sequence (P49582 whole entry) above
T1 sequence (P02708 whole entry): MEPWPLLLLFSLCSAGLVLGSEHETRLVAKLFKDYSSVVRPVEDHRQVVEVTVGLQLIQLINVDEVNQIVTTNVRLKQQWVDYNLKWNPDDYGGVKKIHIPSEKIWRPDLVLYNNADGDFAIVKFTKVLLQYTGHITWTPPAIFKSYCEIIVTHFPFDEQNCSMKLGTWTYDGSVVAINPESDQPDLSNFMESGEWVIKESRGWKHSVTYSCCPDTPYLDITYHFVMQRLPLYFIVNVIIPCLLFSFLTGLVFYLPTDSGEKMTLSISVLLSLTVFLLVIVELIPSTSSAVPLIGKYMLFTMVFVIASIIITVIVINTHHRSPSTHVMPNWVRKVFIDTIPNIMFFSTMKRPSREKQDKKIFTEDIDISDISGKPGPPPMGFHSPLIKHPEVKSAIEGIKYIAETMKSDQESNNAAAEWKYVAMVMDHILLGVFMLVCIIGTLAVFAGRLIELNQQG
T1 sequence (P07510 whole entry): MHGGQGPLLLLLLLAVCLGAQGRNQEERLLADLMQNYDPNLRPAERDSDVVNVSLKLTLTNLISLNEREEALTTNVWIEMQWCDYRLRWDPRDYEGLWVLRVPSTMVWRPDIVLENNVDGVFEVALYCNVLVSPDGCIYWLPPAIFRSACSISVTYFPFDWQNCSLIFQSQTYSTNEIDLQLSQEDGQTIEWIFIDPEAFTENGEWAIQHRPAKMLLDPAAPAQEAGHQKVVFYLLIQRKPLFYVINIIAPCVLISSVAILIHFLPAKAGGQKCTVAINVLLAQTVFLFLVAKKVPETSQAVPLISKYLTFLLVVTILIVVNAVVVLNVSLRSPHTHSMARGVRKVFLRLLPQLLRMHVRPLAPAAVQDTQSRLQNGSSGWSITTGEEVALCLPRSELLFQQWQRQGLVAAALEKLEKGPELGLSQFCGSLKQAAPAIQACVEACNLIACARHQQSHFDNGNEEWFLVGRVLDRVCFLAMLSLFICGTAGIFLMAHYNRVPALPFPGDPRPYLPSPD
T1 sequence (P11230 whole entry): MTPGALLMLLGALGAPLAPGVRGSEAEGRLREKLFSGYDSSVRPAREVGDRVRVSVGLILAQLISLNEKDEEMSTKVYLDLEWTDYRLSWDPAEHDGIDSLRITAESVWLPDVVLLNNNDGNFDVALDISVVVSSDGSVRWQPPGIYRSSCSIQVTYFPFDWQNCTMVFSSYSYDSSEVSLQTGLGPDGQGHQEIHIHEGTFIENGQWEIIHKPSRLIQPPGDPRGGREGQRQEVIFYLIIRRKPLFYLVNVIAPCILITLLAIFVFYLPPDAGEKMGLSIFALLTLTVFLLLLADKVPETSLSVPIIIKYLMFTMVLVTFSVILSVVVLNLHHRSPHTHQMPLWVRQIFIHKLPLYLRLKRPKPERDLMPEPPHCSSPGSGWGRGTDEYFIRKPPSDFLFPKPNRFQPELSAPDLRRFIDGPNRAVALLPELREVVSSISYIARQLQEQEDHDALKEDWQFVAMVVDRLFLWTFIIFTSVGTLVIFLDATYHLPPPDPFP
T1 sequence (Q07001 whole entry): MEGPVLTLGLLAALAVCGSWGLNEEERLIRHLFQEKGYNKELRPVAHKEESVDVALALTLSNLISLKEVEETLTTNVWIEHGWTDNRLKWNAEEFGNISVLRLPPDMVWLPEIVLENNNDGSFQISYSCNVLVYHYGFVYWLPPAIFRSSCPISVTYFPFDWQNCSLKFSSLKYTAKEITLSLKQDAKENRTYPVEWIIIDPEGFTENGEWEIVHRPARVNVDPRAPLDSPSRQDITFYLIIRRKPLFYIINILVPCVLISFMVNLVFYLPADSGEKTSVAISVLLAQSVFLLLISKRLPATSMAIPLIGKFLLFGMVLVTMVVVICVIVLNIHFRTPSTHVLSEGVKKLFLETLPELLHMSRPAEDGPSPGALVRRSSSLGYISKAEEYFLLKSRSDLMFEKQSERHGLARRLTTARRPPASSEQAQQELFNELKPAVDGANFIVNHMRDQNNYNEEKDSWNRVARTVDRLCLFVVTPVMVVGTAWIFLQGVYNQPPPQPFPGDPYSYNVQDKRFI
Chain of Neuronal acetylcholine receptor; alpha4/beta2 (P17787 whole entry): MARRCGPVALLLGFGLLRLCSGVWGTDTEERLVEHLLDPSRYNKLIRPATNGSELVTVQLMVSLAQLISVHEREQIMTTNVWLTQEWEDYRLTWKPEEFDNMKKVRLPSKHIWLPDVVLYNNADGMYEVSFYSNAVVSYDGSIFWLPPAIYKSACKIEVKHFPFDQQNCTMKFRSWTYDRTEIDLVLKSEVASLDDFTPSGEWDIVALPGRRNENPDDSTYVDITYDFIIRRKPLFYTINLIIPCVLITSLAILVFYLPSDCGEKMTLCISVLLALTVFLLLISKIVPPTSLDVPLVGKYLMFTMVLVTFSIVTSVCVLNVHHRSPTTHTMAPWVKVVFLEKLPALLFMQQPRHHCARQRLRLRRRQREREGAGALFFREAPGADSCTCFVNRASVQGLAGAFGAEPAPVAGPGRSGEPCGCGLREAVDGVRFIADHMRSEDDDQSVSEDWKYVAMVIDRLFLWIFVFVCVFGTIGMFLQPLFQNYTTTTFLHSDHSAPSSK
Chain of Neuronal acetylcholine receptor; alpha4/beta2 (P43681 whole entry): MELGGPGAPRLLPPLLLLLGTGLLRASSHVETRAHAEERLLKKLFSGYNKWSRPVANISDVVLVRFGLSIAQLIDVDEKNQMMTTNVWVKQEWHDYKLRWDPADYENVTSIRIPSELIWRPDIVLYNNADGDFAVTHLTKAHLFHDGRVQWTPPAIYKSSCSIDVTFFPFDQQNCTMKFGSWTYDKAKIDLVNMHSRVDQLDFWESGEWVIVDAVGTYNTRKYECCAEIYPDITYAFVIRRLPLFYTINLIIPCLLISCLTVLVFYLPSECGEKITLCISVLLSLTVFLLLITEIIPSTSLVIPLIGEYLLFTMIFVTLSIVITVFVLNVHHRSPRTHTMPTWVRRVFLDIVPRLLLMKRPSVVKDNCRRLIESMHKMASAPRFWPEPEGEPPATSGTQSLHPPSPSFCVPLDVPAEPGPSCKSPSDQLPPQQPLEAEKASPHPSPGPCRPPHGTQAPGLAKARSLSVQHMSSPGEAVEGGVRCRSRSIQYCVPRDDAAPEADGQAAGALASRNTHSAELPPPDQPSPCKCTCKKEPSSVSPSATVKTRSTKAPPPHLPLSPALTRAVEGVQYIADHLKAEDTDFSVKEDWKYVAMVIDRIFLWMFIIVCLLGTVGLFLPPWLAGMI

A word on the Ki: it is the equilibrium dissociation constant of an inhibitor or competing ligand from its target. Lower therefore signals tighter binding. With `Cc1nccn1CC1CCc2c(c3ccccc3n2C)C1=O` (configuration not stated) [ONDANSETRON], the Ki in assay [1] was over 3000 nM; in assay [2] it was 46 µM.
The EC50 is the concentration giving half of the maximal effect. With `O=C(OC1CN2CCC1CC2)n1ccc2ccccc21` (configuration not stated), the inhibition constant (Ki) stood at 10 nM in assay [3], 8.8 nM in assay [1] and 14 µM in assay [2]. Moreover, the Efficacy in assay [4] was 17%. The compound also registered an EC50 in assay [5] of 4800 nM.
In assay [4], `CC(=O)OCC[N+](C)(C)C` returned an Efficacy of 100%.
As to `C[N+]1(C)C2CCC1CC(OC(=O)c1c[nH]c3ccccc13)C2` (configuration not stated), the inhibition constant Ki is 7.2 nM in assay [3], 3 µM in assay [6], 6.4 nM in assay [1] and 7.8 µM in assay [2]. This compound also came in with an Efficacy in assay [4] of 13%. For the same compound, in assay [5], the EC50 worked out at 280 nM.
With `CN1C2CCCC1CC(NC(=O)c1nn(C)c3ccccc13)C2` (configuration not stated) [GRANISETRON], the inhibition constant Ki is over 10000 nM in assay [1] and 38 µM in assay [2].
For `CN1[C@@H]2CC[C@H]1C[C@@H](OC(=O)c1c[nH]c3ccccc13)C2` [TROPISETRON], the Ki amounted to 27 µM in assay [6] and 55 µM in assay [2].
Consider `CN1CCC[C@H]1c1cccnc1` [NICOTINE], for which the Ki in assay [3] was 71000 nM; in assay [7], 5.5 µM; in assay [1] it was 480 nM. In assay [4], the Efficacy was found to be 53%.

Source of the values: ChEMBL document CHEMBL1134160 (Bioorg Med Chem Lett, 2001).
